This passage reports inhibition and IC50 results from patent publication US12479843B2, “Spiro ring-containing quinazoline compounds” (WIGEN BIOMEDICINE TECHNOLOGY (SHANGHAI) CO., LTD., priority 2019, dated 2025).

Molecules are shown by their SMILES.

One test deals with pERK level in H358 cells. Description: pERK and ERK protein content assay in H358 cells (ELISA). The following applies: Homo sapiens, NCI-H358, compound 1 μM, 24 h, pERK/ERK ratio compared with DMSO group, read-out: Inhibition rate (%) of pERK level. In kind it is cell-based. On the procedure: H358 cells were seeded in a 24-well plate. After one day of growth, a test compound (at a concentration of 1 μM) was added. After 24 h of action of the compound, the cells were lysed, and the cell lysate was transferred to a 96-well ELISA plate. The levels of pERK and ERK in the lysate were measured using an ELISA kit (abcam 176660). The ratio of pERK to ERK was calculated and compared with that of the DMSO group, and the percentage of inhibition of pERK activity by the compound was calculated.
For orientation: In an ELISA, binding on a coated surface is turned into a signal by an enzyme label.

A further test deals with H358 cells. The experiment in a line: Antiproliferative activity against H358 cells (Cell Titer Glow, ultra-low attachment plate). In kind it is cell-based. The following applies: Homo sapiens, NCI-H358, 72 h, 96-well ultra-low attachment plate, three days after addition of compound, Cell Titer Glow. As for the experimental part: 2500 H358 cells were seeded in a 96-well ultra-low attachment plate (corning, 7007). After one day of growth, a serially diluted compound (a maximum concentration of 5 μM, 5-fold dilution, a total of five doses) was added. Three days after the addition of the compound, Cell Titer Glow (Promega, G9681) was added to evaluate pellet growth, and the IC50 value was calculated.
A general note: ATP-based viability assays read luminescence as a measure of living cells.

As usually defined, the inhibition is the drop in the measured response relative to a control, in per cent. As usually defined, the IC50 is the concentration at which inhibition is half-maximal. Higher therefore signals weaker potency in that assay. Consider `C=C(F)C(=O)N1CC2(CCN(c3nc(OC4CCN(CCOC)CC4)nc4c(OCC(F)F)c(-c5c(C)ccc6[nH]ncc56)c(C5CC5)cc34)CC2)C1` [Compound 3], for which the inhibition at 1 µM in the test with pERK level in H358 cells is > 90%. In the test on H358 cells, the IC50 is < 300 nM.
In the same order, the values of `C=Cc1cc2c(N3CCC4(CC3)CN(C(=O)C(=C)F)C4)nc(OC3CCN(CCOC)CC3)nc2c(OCC)c1-c1c(C)ccc2[nH]ncc12` [Compound 4] are > 90% and < 300 nM.
The like results for `C=CC(=O)N1CC2(CCN(c3nc(OC4CCN(CCOC)CC4)nc4c(N(C)CC(F)(F)F)c(-c5c(C)ccc6[nH]ncc56)c(C5CC5)cc34)CC2)C1` [Compound 7] were, in that order, 50 to 90% and 300 to 1000 nM.
In the same order, the values of `C=CC(=O)N1CC2(CCN(c3nc(OC4CCN(CCOC)CC4)nc4c(N5CCC5)c(-c5c(C)ccc6[nH]ncc56)c(C5CC5)cc34)CC2)C1` [Compound 8] are 50 to 90% and 300 to 1000 nM.
For the compound `C=CC(=O)N1CC2(CCN(c3nc(OC4CCN(CCOC)CC4)nc4c(N5CC(F)(F)C5)c(-c5c(C)ccc6[nH]ncc56)c(C5CC5)cc34)CC2)C1` [Compound 9], the inhibition at 1 µM in the test with pERK level in H358 cells is > 90%. In the test with H358 cells, the IC50 is < 300 nM.
On to `C=CC(=O)N1CC2(CCN(c3nc(OC4CCN(CCOC)CC4)nc4c(OCC(F)(F)F)c(-c5c(C)ccc6[nH]ncc56)ccc34)CC2)C1` [Compound 10], for which the inhibition at 1 µM in the test with pERK level in H358 cells is 50 to 90%. This compound showed an IC50 in the test on H358 cells of 300 to 1000 nM.
The like results for `C=CC(=O)N1CC2(CCN(c3nc(OC4CCN(CCOC)CC4)nc4c(OCC(F)(F)F)c(-c5c(C)ccc6[nH]ncc56)c(F)cc34)CC2)C1` [Compound 11] were, in that order, > 90% and < 300 nM.
The like results for `C=CC(=O)N1CC2(CCN(c3nc(OC4CCN(CCOC)CC4)nc4c(OCC(F)(F)F)c(-c5c(C)ccc6[nH]ncc56)c(Cl)cc34)CC2)C1` [Compound 12] were, in that order, > 90% and < 300 nM.
In the same order, the values of `C=CC(=O)N1CC2(CCN(c3nc(OC4CCN(CCOC)CC4)nc4c(OCC(F)(F)F)c(-c5c(C)ccc6[nH]ncc56)c(C)cc34)CC2)C1` [Compound 13] are > 90% and 300 to 1000 nM.
In the case of `C=CC(=O)N1CC2(CCN(c3nc(OC4CCN(CCOC)CC4)nc4c(OCC(F)(F)F)c(-c5c(C)ccc6[nH]ncc56)c(CC)cc34)CC2)C1` [Compound 14], in the test with pERK level in H358 cells, the inhibition at 1 µM is > 90%. Further, in the test on H358 cells, the IC50 lay within 300 to 1000 nM.
In the same order, the values of `C=CC(=O)N1CC2(CCN(c3nc(OC4CCN(CCOC)CC4)nc4c(OCC(F)(F)F)c(-c5c(C)ccc6[nH]ncc56)c(C(C)C)cc34)CC2)C1` [Compound 15] are > 90% and < 300 nM.
In the same order, the values of `C#Cc1cc2c(N3CCC4(CC3)CN(C(=O)C=C)C4)nc(OC3CCN(CCOC)CC3)nc2c(OCC(F)(F)F)c1-c1c(C)ccc2[nH]ncc12` [Compound 16] are 50 to 90% and 300 to 1000 nM.
Regarding `C=C(C)C(=O)N1CC2(CCN(c3nc(OC4CCN(CCOC)CC4)nc4c(OCC(F)(F)F)c(-c5c(C)ccc6[nH]ncc56)c(C5CC5)cc34)CC2)C1` [Compound 17], in the test on pERK level in H358 cells, the inhibition at 1 µM was > 90%. Besides, the IC50 in the test with H358 cells was < 300 nM.
Consider `C=C(C#N)C(=O)N1CC2(CCN(c3nc(OC4CCN(CCOC)CC4)nc4c(OCC(F)(F)F)c(-c5c(C)ccc6[nH]ncc56)c(C5CC5)cc34)CC2)C1` [Compound 18], for which the inhibition at 1 µM in the test on pERK level in H358 cells fell in the range of 50 to 90%. Further, in the test on H358 cells, the IC50 fell in the range of 300 to 1000 nM.
In the same order, the values of `C=C(C(=O)N1CC2(CCN(c3nc(OC4CCN(CCOC)CC4)nc4c(OCC(F)(F)F)c(-c5c(C)ccc6[nH]ncc56)c(C5CC5)cc34)CC2)C1)C(F)(F)F` [Compound 19] are 50 to 90% and 300 to 1000 nM.
Regarding `C=C(C(=O)N1CC2(CCN(c3nc(OC4CCN(CCOC)CC4)nc4c(OCC(F)(F)F)c(-c5c(C)ccc6[nH]ncc56)c(C5CC5)cc34)CC2)C1)c1cnccn1` [Compound 20], the inhibition at 1 µM in the test with pERK level in H358 cells is > 90%. Moreover, the IC50 with H358 cells is < 300 nM.
